Source: ChEMBL document CHEMBL3120103, “CK2 inhibitor CX4945 induces sequential inactivation of proteins in the signaling pathways related with cell migration and suppresses metastasis of A549 human lung cancer cells” (Bioorg Med Chem Lett, 2013)
Active and inactive are the calls of the source. The calls are words filed in the database; no cut-off is given here.

Key:
NCI-H1299 [1] = test: Antiinvasive activity against human H1299 cells after 3 hrs by Boyden chamber invasion assay; format: functional, cell-based
[2] = Cytotoxicity against human A549 cells assessed as viable cells at 1 to 30 uM after 24 hrs by CCK8 assay; format: cell-based; details: read-out: Activity
NCI-H1299 [3] = test: Antimigratory activity against human H1299 cells after 24 hrs by wound-healing assay; format: functional, cell-based
[4] = Cytotoxicity against human A549 cells assessed as viable cells at 1 to 30 uM after 3 hrs by CCK8 assay; format: cell-based; details: read-out: Activity
A549 [5] = test: Cytotoxicity against human A549 cells assessed as viable cells at 1 to 30 uM after 24 hrs by LDH assay; format: cell-based; details: a549, 24 h
A549 [6] = test: Reduction in MMP2 expression in human A549 cells at 1 to 10 uM after 24 hrs by Western blot method; format: functional, cell-based
A549 [7] = test: Antimigratory activity against human A549 cells after 24 hrs by wound-healing assay; format: functional, cell-based
A549 [8] = test: Antiinvasive activity against human A549 cells after 3 hrs by Boyden chamber invasion assay; format: functional, cell-based
A549 [9] = test: Reduction in MMP9 expression in human A549 cells at 1 to 10 uM after 24 hrs by Western blot method; format: functional, cell-based

In the case of `O=C(O)c1ccc2c(c1)nc(Nc1cccc(Cl)c1)c1ccncc12` [SILMITASERTIB], the Activity (NCI-H1299 [1]) is reported as “Dose-dependent effect”, the viability at 24 h, up to 30 µM [2] is reported as > 70% and the Activity (NCI-H1299 [3]) is reported as “Dose-dependent effect”. The viability at 3 h, up to 30 µM [4] was > 70%, the Activity (A549 [5]) was “Non-toxic” and the Activity (A549 [6]) was “inactive”. The Activity (A549 [7]) was “Dose-dependent effect”, the Activity (A549 [8]) was “Dose-dependent effect” and the Activity (A549 [9]) was “inactive”.
